Patent publication US20250250227A1, “AMINO LIPID COMPOUND, PREPARATION METHOD THEREFOR, COMPOSITION THEREOF AND USE THEREOF” (SHENZHEN SHENXIN BIOTECHNOLOGY CO., LTD., priority 2022, published 2025)

Assays:
[1] = Preparation and characterisation of mRNA-encapsulating lipid nanoparticle (encapsulation efficiency, particle size); format: physicochemical; settings: LNP encapsulating Fluc mRNA; Lipid:DSPC:CHO-HP:M-DMG-2000 48:10:40.5:1.5
Procedure, shortened: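 Fluc mRNA in sodium acetate buffer mixed with ethanolic amino lipid:DSPC:CHO-HP:M-DMG-2000 (48:10:40.5:1.5 molar) by microfluidics, mRNA:lipid mass ratio 1:10, then dialysed 2 h against Tris-8% sucrose and 0.22 μm filtered. Final mRNA 0.2 g/L; particle size and encapsulation efficiency measured.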

[2] = system: Female BALB/c mice; assay: In vivo safety of hEPO mRNA lipid nanoparticle: serum alanine aminotransferase (ALT) enzyme activity; settings: hEPO mRNA LNP, 300 μL IV, serum 12 h after injection; FIG. 1
Protocol: A human erythropoietin mRNA (hEPO mRNA)-encapsulating lipid nanoparticle formulation was prepared according to the method as described in Experimental Example 1, with replacing the luciferase mRNA (Fluc mRNA) with human erythropoietin mRNA (hEPO mRNA), with a concentration of hEPO mRNA of 0.2 g/L, a mass ratio of hEPO mRNA to Lipid of 1:10, a particle size of 90-130 nm, and an encapsulation efficiency of above 90% or higher.
Animal preparation: Female BALB/c mice of 6-8 weeks old were selected and raised in an SPF grade breeding room. Animal testing was conducted in strict accordance with the guidelines of national health institutions and animal ethics requirements.
In vivo Delivery: Prior to injection of the test LNP formulations, the LNP formulations were gently and repeatedly inverted to thoroughly mix the formulation samples. A corresponding amount of the formulation samples were aspirated with a 1 ml insulin syringe, and the LNP formulations were injected by tail vein injection (IV), with 5 mice per formulation. Each mouse was injected with 300 μL of the human erythropoietin mRNA (hEPO mRNA)-encapsulating lipid nanoparticle formulation.
Serum acquisition: Blood samples of mice were collected 12 h after injection, placed in tubes without anticoagulants, and naturally coagulated at room temperature for 30-60 min, and then centrifuged at a speed of 3500 rpm for 10 min to obtain the supernatant, which was the serum.
The detection of alanine transaminase was carried out according to instructions of the kit (Nanjing Jiancheng Bioengineering Institute, Catalog. No. C009-2-1), and a standard curve was made using the standard provided in the kit. D-PBS was used in the experiment, which was purchased from Sangon Biotech (Shanghai) Co., Ltd., Catalog No. E607009-0600.
The method of detection of enzyme activity of alanine aminotransferase (ALT) in serum of the mice is as follows:
• (1) Enzymatic reaction: 0, 2, 4, 6, 8 and 10 μL of […] sodium pyruvate standard solution were sequentially added to 5 μL of 0.1 mol/L phosphate buffer, and the volume was supplemented to 25 μL with a matrix solution, and repeatedly aspirating and spitting with a pipette for mixing well; • (2) Addition reaction: 20 μL 2,4-dinitrophenylhydrazine solution was added to all reaction wells in (1), mixed by aspirating and spitting, and then placed in an incubator at 37° C. to react for 20 min; • (3) Developing: 200 μL of 0.4 mol/L NaOH solution was added to all reaction wells in (2) to stop the reaction, mixed by aspirating and spitting, and incubated at room temperature for 15 min. The OD value of each well was measured at 510 nm in a microplate reader; and • (4) Data processing of standard curve: The corresponding absolute OD value for each well was obtained by subtracting the OD value for 0 μL well from the measured OD value for each well, the corresponding ALT Karmen units being 0, 28, 57, 97, 150 and 200 U/L, respectively. The standard curve was obtain by taking the absolute OD value as the abscissa and the corresponding Karmen unit as the ordinate.
• (1) Reagent preparation: an ALT matrix solution was placed in an incubator at 37° C. for preheating; • (2) Enzymatic reaction: 5 μL diluted serum was aspirated and added to a 96-well plate, then 20 μL matrix solution was added to the corresponding sample well and mixed by repeatedly aspirating and spitting to avoid bubbling, and then placed in an incubator at 37° C. for 30 min; • (3) Addition reaction: 20 μL 2,4-dinitrophenylhydrazine was added to all reaction wells in (2), mixed by aspirating and spitting, and then reacted in an incubator at 37° C. for 20 min; • (4) Developing: 200 μL of 0.4 mol/L NaOH solution was added to all reaction wells in (3) to stop the reaction, mixed by aspirating and spitting, and then incubated at room temperature for 15 min. […]

Row | Structure (SMILES) | Encapsulation efficiency [1] [%] | ALT enzyme activity (Karmen unit) compared to ALC0315 and SM-102 [2]
1 | CCCCCCCOC(=O)CCN(CCCN(C)C)C(=O)OC(CCCCCCCCC(=O)OC(CCCCCC)CCCCCC)CCCCCCCCC(=O)OC(CCCCCC)CCCCCC [Compound 267] | 93.13 | significantly lower ALT enzyme activity
2 | CCCCCCCOC(=O)CN(CCCN(C)C)C(=O)OC(CCCCCCCCC(=O)OC(CCCCCC)CCCCCC)CCCCCCCCC(=O)OC(CCCCCC)CCCCCC [Compound 273] | 87.42 | significantly lower ALT enzyme activity
3 | CCCCCCC(CCCCCC)OC(=O)CCCCCCCCC(CCCCCCCCC(=O)OC(CCCCCC)CCCCCC)OC(=O)N(CCCN(C)C)CC(=O)OCCCC [Compound 270] | 93.46 | significantly lower ALT enzyme activity
4 | CCCCCCC(CCCCCC)OC(=O)CCCCCCCCC(CCCCCCCCC(=O)OC(CCCCCC)CCCCCC)OC(=O)N(CCCN(C)C)CCC(=O)OCCCC [Compound 264] | 94.12 | significantly lower ALT enzyme activity
5 | CCCCCCOC(=O)CN(CCCN(C)C)C(=O)OC(CCCCCCCCC(=O)OC(CCCCCC)CCCCCC)CCCCCCCCC(=O)OC(CCCCCC)CCCCCC [Compound 272] | 93.96 | significantly lower ALT enzyme activity
